According to patent US20090282496A1, “Androgen Receptor Related Methods for Treating Bladder Cancer” (University of Rochester Medical Center, priority 2008, published 2009):

What was measured:
TCC-SUP cells = experiment: Cell proliferation assay (MTT), TCC-SUP; assay type: cell-based, human; details: TCC-SUP stable subline, without androgen treatment, vs. control-siRNA
AR = AR knockdown in stable transfectants (RT-PCR, immunoblot); assay type: cell-based, human; details: AR-siRNA-expressing TCC-SUP and UMUC3 cells vs. scrambled control-siRNA
Source text: (§1) The reporter plasmids [mouse mammary tumor virus (MMTV)-luciferase (Luc) and (ARE)4-Luc (provided by Dr. Michael L. Lu at Harvard Medical School)] as well as a retrovirus vector pMSCV/U6 (Clontech)-AR-siRNA were described in previous studies (Miyamoto et al., Int. J. Cancer, 117:866-72 (2005) and Yeh et al., J. Exp. Med. 198:1899-908 (2003)). Using SuperFect reagent (Qiagen), stable cell lines expressing the AR-siRNA were established by transfecting pMSCV/U6-AR-siRNA into Phi-NX packaging retrovirus producer cells (developed by the Nolan Lab at Stanford University). The target cells (i.e., TCC-SUP, UMUC3, and 5637) were then cultured in the presence of the viral supernatant, and infected cells were selected with puromycin (Sigma).
Total RNA from mouse bladder and xenograft tumor tissues and cultured cells was extracted by the acid guanidinium-phenol-chloroform method as previously described (Miyamoto et al., Cancer, 75:2565-70 (1995)) or by using Trizol reagent (Life Science). […] Using the iCycler (Bio-Rad) and the methods previously described by Miyoshi et al., Prostate, 56:280-6 (2003), real-time quantitative PCR analysis of AR, basic fibroblast growth factor (bFGF), vascular endothelial growth factor (VEGF), and matrix metalloproteinase-9 (MMP-9) was performed on the tissue samples from mouse xenograft tumors. […]

[1] = system: TCC-SUP and UMUC3 stable sublines (control-siRNA, AR-siRNA); experiment: Tumor incidence (tumorigenicity) study of control-siRNA and AR-siRNA sublines in nude mice; assay type: in vivo, male athymic nude mouse; details: vs. control-siRNA cells with control treatment; treatment from tumor cell implantation; tumor positive at 40 mm3
Source text: as §1
Bladder cancer cell lines (TCC-SUP, UMUC3, and 5637) were harvested, washed twice with PBS, and resuspended in Matrigel (BD Bioscience) at a final concentration of 1×10^7 cells/mL. Cells (1×10^6 cells in 100 μl per site) were then injected subcutaneously into the right and left flanks of 6-week-old male athymic nude mouse. Treatment (castration or sham surgery, flutamide [0.5 mg/mouse] or placebo pellet injection, and the recently developed anti-AR molecule ASC-J9 (50 mg/Kg or DMSO injection) (Ohtsu et al., J. Med. Chem., 45:5037-42 (2002)) was initiated either (1) at the same time as tumor cell injection (for tumor incidence studies, n=8 mice in each group) or (2) when the sizes of all tumors reached 40 mm^3 (for tumor progression studies, n=12 tumors from 6 mice in each group). Hormonal pellets were replaced as required (every 90 days). Tumor weight was calculated by the following formula: tumor weight (mg)=tumor length (mm)×[tumor width (mm)]^2×0.5 (Geram et al., Cancer Chemother. Rep., 3:47-52 (1972)). Using calipers, each tumor was measured twice a week until either the tumor size reached 40 mm^3 (for tumor incidence study) (Chen et al., Nat. Med., 10:33-9 (2004)), or until the tumor exceeded 10% of the animal's body weight, at which time the mouse was killed (for tumor progression study).

UMUC3 cells = experiment: Cell proliferation assay (MTT), UMUC3; assay type: cell-based, human; details: UMUC3 stable subline, without androgen treatment, vs. control-siRNA

## AR-siRNA: siRNA against AR expressed from retrovirus vector pMSCV/U6-AR-siRNA; knocks down the AR in mammalian cells (guide GGGCCCCTGGATGGATAGCTACCTCGAGGTAGCTATCCATCCAGGGGCC; listed as Homo sapiens)
TCC-SUP cells
  reduction of cell proliferation by AR knockdown: 20%
AR
  levels of AR mRNA and protein: substantially lower
[1]
  latency of tumor formation: substantially prolonged
UMUC3 cells
  reduction of cell proliferation by AR knockdown: 15%
